In assay [1] the target is Dual specificity mitogen-activated protein kinase kinase 1 (Homo sapiens) (UniProt Q02750). Briefly: Inhibition of human MEK1 using inactive MAPK2 as substrate in presence of [gamma-33P]ATP at 1 uM after 40 mins by scintillation counter method.
The target of assay [2] is Tyrosine-protein kinase JAK2 (Homo sapiens) (UniProt O60674). Nature of the assay: Inhibition of human JAK2 using KTFCGTPEYLAPEVRREPRILSEEEQEMFRDFDYIADWC as substrate in presence of [gamma-33P]ATP at 1 uM after 40 mins by scintillation counter method.
Assay [3] addresses PI3-kinase p110-delta/p85-alpha (Homo sapiens) (UniProt P27986+O00329). Nature of the assay: Inhibition of human PI3K p110delta/pI3K p85alpha at 1 uM using PIP2 as substrate in presence of biotinylated PIP3 and ATP and measured after 30 mins by HTRF method. The class given is protein-complex assay.
Assay [4] concerns the target Tyrosine-protein kinase ABL1 (Homo sapiens) (UniProt P00519). Nature of the assay: Inhibition of human Abl using EAIYAAPFAKK as substrate in presence of [gamma-33P]ATP at 1 uM after 40 mins by scintillation counter method.
In assay [5] the target is Serine/threonine-protein kinase PLK1 (Homo sapiens) (UniProt P53350). Nature of the assay: Inhibition of human Plk1 using casein as substrate in presence of [gamma-33P]ATP at 1 uM after 40 mins by scintillation counter method.
The target of assay [6] is Vascular endothelial growth factor receptor 2 (Homo sapiens) (UniProt P35968). Nature of the assay: Inhibition of human KDR using myelin basic protein as substrate in presence of [gamma-33P]ATP at 1 uM after 40 mins by scintillation counter method.
In assay [7] the target is Dual specificity tyrosine-phosphorylation-regulated kinase 1A (Homo sapiens) (UniProt Q13627). Briefly: Inhibition of human DYRK1A using RRRFRPASPLRGPPK as substrate in presence of [gamma-33P]ATP at 1 uM after 40 mins by scintillation counter method.
The target in assay [8] is T1, Tyrosine-protein kinase JAK3 (Homo sapiens) (UniProt P52333).
T1 sequence (whole entry): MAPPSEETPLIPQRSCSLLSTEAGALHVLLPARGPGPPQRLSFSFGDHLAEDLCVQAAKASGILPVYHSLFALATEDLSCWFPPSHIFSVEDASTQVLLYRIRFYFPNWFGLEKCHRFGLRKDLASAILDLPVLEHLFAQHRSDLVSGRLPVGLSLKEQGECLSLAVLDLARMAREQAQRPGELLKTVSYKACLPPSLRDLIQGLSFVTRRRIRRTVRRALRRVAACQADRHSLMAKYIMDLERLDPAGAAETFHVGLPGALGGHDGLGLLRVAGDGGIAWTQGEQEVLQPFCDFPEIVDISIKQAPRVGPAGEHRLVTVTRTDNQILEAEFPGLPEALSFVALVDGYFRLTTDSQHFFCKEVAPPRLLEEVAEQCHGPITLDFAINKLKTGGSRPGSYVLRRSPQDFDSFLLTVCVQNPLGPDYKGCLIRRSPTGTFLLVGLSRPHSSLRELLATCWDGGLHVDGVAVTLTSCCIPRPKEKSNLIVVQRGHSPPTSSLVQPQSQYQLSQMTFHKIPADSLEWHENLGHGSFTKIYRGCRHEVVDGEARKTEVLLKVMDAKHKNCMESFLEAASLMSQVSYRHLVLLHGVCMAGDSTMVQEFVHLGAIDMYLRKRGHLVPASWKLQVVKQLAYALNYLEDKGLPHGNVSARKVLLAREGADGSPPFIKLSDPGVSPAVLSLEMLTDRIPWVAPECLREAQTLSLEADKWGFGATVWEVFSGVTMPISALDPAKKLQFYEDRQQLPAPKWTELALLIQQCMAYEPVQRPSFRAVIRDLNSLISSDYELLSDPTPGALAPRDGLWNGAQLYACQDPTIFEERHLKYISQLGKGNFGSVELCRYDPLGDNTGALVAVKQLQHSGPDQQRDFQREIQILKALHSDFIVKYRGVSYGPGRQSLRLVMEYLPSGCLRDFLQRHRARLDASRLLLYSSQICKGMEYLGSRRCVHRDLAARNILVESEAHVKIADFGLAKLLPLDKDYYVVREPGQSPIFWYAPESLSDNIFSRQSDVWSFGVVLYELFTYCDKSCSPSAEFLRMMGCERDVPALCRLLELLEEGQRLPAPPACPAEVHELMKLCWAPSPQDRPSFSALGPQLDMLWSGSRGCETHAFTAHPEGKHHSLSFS
Briefly: Inhibition of human JAK3 using GGEEEEYFELVKKKK as substrate in presence of [gamma-33P]ATP at 1 uM after 40 mins by scintillation counter method.

In assay [9] the target is Proto-oncogene tyrosine-protein kinase Src (Homo sapiens) (UniProt P12931). Nature of the assay: Inhibition of human Src (1 to 530 residues) using GGEEEEYFELVKKKK as substrate in presence of [gamma-33P]ATP at 1 uM after 40 mins by scintillation counter method.
In assay [10] the target is T2, Mitogen-activated protein kinase kinase kinase 2 (Homo sapiens) (UniProt Q9Y2U5).
T2 sequence (whole entry): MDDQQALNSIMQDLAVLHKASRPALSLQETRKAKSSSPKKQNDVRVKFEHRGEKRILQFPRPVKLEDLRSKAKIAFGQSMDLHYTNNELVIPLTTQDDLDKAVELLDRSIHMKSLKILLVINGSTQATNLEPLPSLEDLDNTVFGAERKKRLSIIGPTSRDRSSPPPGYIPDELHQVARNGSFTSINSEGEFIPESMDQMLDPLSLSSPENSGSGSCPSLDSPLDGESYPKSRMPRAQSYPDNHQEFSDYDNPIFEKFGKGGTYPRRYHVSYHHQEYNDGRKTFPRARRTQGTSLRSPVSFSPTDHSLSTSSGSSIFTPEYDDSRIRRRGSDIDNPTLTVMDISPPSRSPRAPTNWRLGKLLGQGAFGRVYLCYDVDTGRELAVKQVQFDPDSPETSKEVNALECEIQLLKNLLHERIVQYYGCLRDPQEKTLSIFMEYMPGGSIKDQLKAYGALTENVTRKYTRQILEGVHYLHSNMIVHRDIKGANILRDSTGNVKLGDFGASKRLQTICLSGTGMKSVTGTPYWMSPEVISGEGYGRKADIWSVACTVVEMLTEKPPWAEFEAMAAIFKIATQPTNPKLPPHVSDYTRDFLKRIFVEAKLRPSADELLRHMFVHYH
Nature of the assay: Inhibition of human MEKK2 using myelin basic protein as substrate in presence of [gamma-33P]ATP at 1 uM after 40 mins by scintillation counter method.

The target of assay [11] is SRSF protein kinase 1 (Homo sapiens) (UniProt Q96SB4). Briefly: Inhibition of human SRPK1 using RSRSRSRSRSRSRSR as substrate in presence of [gamma-33P]ATP at 1 uM after 40 mins by scintillation counter method.
Assay [12] deals with Mitogen-activated protein kinase 10 (Homo sapiens) (UniProt P53779). Briefly: Inhibition of human JNK3 using substrate in presence of [gamma-33P]ATP at 1 uM after 40 mins by scintillation counter method.

In general, inhibition refers to the change of the read-out against control, counted positive when it falls.

Chain of Dual specificity mitogen-activated protein kinase kinase 1 (Homo sapiens) (Q02750 whole entry): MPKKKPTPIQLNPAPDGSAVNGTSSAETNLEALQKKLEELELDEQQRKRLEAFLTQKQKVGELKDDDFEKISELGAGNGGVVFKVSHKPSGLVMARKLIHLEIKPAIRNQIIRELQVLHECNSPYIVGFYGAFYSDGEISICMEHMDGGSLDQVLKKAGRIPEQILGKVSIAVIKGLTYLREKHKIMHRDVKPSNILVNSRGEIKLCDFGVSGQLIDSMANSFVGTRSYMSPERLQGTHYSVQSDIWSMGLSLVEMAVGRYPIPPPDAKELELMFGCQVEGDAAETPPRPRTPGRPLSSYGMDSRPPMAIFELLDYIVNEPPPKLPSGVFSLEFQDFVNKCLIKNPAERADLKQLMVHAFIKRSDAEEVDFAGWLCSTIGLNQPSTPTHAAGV
Chain of Serine/threonine-protein kinase PLK1 (Homo sapiens) (P53350 whole entry): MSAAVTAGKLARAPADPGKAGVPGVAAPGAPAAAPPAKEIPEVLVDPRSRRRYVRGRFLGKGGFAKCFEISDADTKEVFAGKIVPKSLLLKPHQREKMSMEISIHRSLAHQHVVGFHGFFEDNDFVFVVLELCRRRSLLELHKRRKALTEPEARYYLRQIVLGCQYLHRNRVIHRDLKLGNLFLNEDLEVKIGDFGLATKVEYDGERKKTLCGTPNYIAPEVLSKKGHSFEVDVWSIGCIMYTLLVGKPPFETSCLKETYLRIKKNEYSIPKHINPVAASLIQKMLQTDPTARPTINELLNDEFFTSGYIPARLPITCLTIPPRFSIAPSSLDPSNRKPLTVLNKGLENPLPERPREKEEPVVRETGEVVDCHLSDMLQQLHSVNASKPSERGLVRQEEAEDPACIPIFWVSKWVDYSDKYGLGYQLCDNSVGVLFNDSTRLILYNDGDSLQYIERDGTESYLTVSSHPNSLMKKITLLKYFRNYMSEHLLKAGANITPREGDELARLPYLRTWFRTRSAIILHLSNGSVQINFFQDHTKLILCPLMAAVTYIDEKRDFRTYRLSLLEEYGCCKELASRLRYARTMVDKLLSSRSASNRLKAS
Chain of SRSF protein kinase 1 (Homo sapiens) (Q96SB4 whole entry): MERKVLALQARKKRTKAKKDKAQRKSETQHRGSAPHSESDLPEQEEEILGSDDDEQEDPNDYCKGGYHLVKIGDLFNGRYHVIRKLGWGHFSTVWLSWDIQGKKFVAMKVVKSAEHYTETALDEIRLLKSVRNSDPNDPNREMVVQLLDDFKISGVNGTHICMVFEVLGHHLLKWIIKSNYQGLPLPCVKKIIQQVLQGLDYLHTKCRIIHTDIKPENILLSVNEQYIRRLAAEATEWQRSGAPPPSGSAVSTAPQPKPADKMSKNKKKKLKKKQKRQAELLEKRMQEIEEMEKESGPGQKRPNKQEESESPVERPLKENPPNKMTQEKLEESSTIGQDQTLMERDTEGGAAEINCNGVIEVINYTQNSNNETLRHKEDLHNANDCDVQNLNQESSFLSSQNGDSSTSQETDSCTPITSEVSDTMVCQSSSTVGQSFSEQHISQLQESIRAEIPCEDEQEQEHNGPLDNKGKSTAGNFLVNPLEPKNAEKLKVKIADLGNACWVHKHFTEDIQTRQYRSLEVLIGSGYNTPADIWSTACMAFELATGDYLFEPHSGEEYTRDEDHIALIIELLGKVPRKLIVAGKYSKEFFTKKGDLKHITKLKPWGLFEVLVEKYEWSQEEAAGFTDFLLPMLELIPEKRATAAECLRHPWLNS
Chain of Tyrosine-protein kinase JAK2 (Homo sapiens) (O60674 whole entry): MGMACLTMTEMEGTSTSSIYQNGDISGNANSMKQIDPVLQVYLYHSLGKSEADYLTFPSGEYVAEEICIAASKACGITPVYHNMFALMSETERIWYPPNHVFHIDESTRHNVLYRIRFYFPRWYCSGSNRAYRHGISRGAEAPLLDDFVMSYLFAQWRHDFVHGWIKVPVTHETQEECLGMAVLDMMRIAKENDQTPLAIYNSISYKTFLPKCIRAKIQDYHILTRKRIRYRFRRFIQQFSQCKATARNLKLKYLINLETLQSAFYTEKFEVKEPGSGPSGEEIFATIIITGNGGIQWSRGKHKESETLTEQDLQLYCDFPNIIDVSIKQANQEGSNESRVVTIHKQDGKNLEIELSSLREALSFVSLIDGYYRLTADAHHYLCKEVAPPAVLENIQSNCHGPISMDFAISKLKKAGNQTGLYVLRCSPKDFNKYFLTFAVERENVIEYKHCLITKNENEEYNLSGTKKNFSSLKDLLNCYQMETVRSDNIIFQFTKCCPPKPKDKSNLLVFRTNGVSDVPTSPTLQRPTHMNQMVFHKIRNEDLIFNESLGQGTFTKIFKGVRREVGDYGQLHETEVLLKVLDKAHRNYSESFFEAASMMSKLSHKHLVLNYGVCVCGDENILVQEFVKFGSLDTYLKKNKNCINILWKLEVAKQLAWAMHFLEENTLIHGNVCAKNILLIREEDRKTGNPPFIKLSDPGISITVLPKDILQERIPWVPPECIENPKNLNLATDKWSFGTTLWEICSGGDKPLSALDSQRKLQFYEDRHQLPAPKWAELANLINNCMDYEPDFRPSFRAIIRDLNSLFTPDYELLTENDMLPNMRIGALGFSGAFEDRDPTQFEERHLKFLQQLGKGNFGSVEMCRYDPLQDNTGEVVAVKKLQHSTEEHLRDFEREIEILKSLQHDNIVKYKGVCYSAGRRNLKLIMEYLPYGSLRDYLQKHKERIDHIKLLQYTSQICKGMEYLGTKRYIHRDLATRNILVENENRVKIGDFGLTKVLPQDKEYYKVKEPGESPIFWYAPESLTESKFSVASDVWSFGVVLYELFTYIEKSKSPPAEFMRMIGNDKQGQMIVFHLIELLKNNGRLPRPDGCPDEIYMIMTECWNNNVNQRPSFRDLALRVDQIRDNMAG
Chain of Mitogen-activated protein kinase 10 (Homo sapiens) (P53779 whole entry): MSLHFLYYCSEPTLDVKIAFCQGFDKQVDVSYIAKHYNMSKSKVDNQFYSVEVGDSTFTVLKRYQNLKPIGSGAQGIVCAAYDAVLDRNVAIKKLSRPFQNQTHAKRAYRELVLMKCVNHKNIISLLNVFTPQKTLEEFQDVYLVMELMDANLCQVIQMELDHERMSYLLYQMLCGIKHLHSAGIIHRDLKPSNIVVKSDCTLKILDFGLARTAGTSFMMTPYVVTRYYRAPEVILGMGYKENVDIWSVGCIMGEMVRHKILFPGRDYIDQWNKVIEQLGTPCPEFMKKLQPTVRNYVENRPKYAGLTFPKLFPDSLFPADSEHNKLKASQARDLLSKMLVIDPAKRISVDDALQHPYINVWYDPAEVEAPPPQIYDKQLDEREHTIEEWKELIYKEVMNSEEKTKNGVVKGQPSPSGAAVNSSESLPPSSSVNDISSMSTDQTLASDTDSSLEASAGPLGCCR
Chain of Proto-oncogene tyrosine-protein kinase Src (Homo sapiens) (P12931 2-536 limits assumed): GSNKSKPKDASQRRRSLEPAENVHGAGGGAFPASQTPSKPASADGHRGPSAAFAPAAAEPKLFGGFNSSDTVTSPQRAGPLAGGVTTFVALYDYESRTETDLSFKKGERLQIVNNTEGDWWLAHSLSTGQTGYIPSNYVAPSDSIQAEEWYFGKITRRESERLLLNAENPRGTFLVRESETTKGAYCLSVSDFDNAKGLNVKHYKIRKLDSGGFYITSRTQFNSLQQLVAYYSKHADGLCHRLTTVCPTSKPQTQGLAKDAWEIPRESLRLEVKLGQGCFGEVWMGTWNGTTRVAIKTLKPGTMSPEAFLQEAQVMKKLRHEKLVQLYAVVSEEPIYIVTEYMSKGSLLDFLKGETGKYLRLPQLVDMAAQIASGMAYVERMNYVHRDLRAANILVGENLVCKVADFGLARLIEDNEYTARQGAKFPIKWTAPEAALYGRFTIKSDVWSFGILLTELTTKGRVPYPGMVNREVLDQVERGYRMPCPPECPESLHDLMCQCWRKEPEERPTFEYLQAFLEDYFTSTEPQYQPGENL
Chain of Tyrosine-protein kinase ABL1 (Homo sapiens) (P00519 whole entry): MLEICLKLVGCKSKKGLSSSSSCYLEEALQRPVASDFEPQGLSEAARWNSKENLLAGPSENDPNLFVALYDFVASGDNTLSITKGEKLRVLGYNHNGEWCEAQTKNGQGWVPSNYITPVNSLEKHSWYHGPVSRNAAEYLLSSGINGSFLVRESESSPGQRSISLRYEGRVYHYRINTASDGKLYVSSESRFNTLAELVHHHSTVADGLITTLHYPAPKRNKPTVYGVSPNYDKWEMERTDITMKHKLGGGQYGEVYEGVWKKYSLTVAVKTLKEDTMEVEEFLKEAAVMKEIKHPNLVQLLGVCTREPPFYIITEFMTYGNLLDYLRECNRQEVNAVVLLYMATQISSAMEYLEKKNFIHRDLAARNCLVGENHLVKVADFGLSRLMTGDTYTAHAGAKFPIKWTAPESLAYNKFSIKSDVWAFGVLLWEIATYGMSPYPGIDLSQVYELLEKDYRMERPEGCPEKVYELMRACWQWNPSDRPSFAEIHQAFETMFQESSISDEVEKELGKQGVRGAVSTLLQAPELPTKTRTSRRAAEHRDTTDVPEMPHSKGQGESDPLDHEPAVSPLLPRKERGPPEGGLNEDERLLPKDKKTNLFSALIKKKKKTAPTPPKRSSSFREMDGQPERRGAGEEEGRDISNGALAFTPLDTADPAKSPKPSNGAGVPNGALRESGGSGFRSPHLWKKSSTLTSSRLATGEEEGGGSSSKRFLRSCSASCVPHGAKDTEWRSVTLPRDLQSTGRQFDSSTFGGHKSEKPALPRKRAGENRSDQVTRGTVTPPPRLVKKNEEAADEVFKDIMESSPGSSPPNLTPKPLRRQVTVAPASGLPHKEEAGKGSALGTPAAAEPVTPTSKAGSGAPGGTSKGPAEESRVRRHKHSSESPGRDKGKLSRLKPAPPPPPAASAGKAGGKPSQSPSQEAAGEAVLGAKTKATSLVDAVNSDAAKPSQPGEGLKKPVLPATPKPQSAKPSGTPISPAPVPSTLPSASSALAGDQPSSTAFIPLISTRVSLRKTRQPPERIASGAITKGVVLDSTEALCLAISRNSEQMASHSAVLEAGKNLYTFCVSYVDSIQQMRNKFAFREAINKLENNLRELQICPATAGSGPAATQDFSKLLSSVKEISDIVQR

Regarding `CC(C)n1cnc2c(Nc3cccc(Cl)c3)nc(N[C@@H]3CCCC[C@@H]3N)nc21`, the inhibition in [1] was 8%; in assay [2], 2%; in [3], 3%; in assay [4], 2%; in assay [5], 9%; in [6] it was -6%. Moreover, the inhibition was 28% in assay [7]; 4% in assay [8]; 69% in assay [9]; 18% in [10]; 48% in [11]; -5% in [12].

As for `CC(C)n1cnc2c(Nc3cccc(Cl)c3)nc(N[C@H]3CCCC[C@@H]3N)nc21`, the inhibition in assay [1] is 10%; in [2] it was -6%; in [3], 2%; in assay [4] it was -2%; in assay [5], 49%; in assay [6], 16%. Also, the inhibition in assay [7] was 5%; in [8], 0%; in assay [9] it was 22%; in assay [10] it was 47%; in [11], -1%; in assay [12] it was 6%.

On to `CC(C)n1cnc2c(Nc3cc(N)cc(Cl)c3)nc(N[C@@H]3CCCC[C@@H]3N)nc21` (racemic), for which the inhibition was found to be 6% in [1]; 8% in assay [2]; 0% in [3]; 8% in [4]; 60% in [5]; 4% in assay [6]. Moreover, the inhibition was 19% in assay [7]; 0% in assay [8]; 78% in [9]; 48% in assay [10]; 21% in assay [11]; -10% in [12].
